Data as given in patent publication US11642336B2, “5-HT2A agonists for use in treatment of depression” (priority 2019, dated 2023).
Counter-ions that a name gives are not always drawn. Like-named read-outs stand apart in the source and are kept apart here. Marks after values point to notes of the source that are not given here.

What was measured:
[1] = system: male Sprague Dawley rats treated with ACTH or vehicle; experiment: forced swim test, adrenocorticotropic hormone (ACTH) model; assay type: in vivo
Description: The adrenocorticotropic hormone model (ACTH) model was conducted as previously described.^14 Male Sprague Dawley rats were used (age 7 weeks, N=50) (Taconic Biosciences A/S, Lille Skensved, Denmark). After 1 week habituation, the rats were given either 100 μg ACTH/animal/day s.c. (Adrenocorticotropic Hormone 1-24 (China Peptides, China)) at 10 a.m. for 14 days (n=30) or vehicle (VEH) consisting of 0.9% saline (n=20). At day 14, the rats were subjected to a pre-swim test (15 minutes). […] Preceding the FST, rat baseline mobility was determined in the (OFT). The OFT and the FST were conducted as described above.

[2] = molecular target: T1, 5-HT2C (Homo sapiens (Human), UniProt P28335); experiment: IP assay (Eurofins, IP1 HTRF), HEK293 cells; assay type: cell-based; conditions: for 5-HT2C Rmax (%): % of Rmax of 5-HT;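 for 5-HT2B Rmax: agonist effect read as cellular IP1 production by HTRF using a europium cryptate anti-IP1 antibody donor and D2-labeled IP1 acceptor, eight compound concentrations in each cell line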;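 for Selectivity EC50 5-HT2B/EC50 5-HT2A: agonist effect read as cellular IP1 production by HTRF using a europium cryptate anti-IP1 antibody donor and D2-labeled IP1 acceptor, eight compound concentrations in each cell line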
T1 sequence (P28335 whole entry, looked up): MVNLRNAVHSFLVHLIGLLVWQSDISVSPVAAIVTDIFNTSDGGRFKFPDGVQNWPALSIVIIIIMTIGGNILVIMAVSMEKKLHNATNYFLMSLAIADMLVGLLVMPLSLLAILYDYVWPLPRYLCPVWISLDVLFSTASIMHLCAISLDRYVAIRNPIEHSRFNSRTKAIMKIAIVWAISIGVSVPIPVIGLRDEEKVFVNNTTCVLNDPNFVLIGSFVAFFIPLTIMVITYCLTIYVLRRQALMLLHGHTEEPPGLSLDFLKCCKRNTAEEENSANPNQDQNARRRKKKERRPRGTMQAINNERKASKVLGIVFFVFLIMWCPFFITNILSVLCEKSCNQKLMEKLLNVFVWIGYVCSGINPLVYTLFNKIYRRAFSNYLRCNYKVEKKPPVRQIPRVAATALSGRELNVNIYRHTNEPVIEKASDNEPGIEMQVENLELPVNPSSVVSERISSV
Description: (§1) The agonist properties of the compounds were characterized at HEK293 cell lines expressing the human 5-HT2A, human 5-HT2B or human 5-HT2C receptors in an IP assay essentially as previously described.^19 The testing was performed by Eurofins. In the assay, the agonist activity of the compound at the receptors is investigated by measuring its effect on IP1 production in the cell using the Homogeneous Time Resolved Fluorescence (HTRF) detection method. […] Following incubation, the cells were lysed, and the fluorescence acceptor (D2-labeled IP1) and fluorescence donor (anti-IP1 antibody labeled with europium cryptate) were added. […] The test compounds were characterized in eight different concentrations in duplicate at each of the three cell lines.

[3] = molecular target: 5-HT2B (Homo sapiens (Human), UniProt P41595); experiment: IP assay (Eurofins, IP1 HTRF), HEK293 cells; assay type: cell-based; conditions: for EC50: duplicate determinations; for 5-HT2B Rmax: % of Rmax of 5-HT; for Selectivity EC50 5-HT2B/EC50 5-HT2A: bounds are conservative estimates;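 for 5-HT2B Rmax: agonist effect read as cellular IP1 production by HTRF using a europium cryptate anti-IP1 antibody donor and D2-labeled IP1 acceptor, eight compound concentrations in each cell line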;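 for Selectivity EC50 5-HT2B/EC50 5-HT2A: agonist effect read as cellular IP1 production by HTRF using a europium cryptate anti-IP1 antibody donor and D2-labeled IP1 acceptor, eight compound concentrations in each cell line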
Sequence of 5-HT2B (P41595 whole entry, looked up): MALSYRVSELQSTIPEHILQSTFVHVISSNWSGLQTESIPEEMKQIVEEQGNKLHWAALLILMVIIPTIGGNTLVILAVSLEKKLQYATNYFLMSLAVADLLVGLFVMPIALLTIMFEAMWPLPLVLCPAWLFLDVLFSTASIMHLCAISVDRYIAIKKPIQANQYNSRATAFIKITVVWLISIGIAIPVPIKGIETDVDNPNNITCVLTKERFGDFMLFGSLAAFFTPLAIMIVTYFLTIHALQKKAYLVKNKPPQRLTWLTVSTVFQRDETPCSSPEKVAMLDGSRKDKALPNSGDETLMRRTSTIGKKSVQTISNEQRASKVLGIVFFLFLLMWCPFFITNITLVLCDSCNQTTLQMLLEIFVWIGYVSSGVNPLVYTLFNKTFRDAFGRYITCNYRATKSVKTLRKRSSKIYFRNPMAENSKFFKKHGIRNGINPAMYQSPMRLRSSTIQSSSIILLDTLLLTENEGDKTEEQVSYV
Description: as §1

[4] = molecular target: T2, human 5-HT2A (Homo sapiens (Human), UniProt P28223); experiment: cell-based; assay type: cell-based; conditions: for EC50: duplicate determinations
[5] = molecular target: T2, human 5-HT2A; experiment: cell-based; assay type: cell-based; conditions: for 5-HT2A Rmax ± S.E.M: % of the Rmax of 5-HT; for Selectivity EC50 5-HT2C/EC50 5-HT2A: Ca2+/Fluo-4 assay, bounds are conservative estimates
[6] = molecular target: T1, 5-HT2C; experiment: Ca2+/Fluo-4 assay, stable h5-HT2C-HEK293 cell line; assay type: cell-based; conditions: for 5-HT2C Rmax ± S.E.M: % of the Rmax of 5-HT; for 5-HT2C agonist activity (n.a./w.a.): tested up to 50 μM;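 for all read-outs here: Agonist-induced intracellular Ca2+ rise read by Fluo-4 fluorescence in HEK293 cells stably expressing the human 5-HT2C receptor, each compound run in duplicate on three or more occasions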
Description: The functional properties of the compounds were characterised at stable HEK293 cell lines stably expressing the human 5-HT2A receptor or human 5-HT2C receptor in the Ca^2+/Fluo-4 assay essentially as previously described.^10 Briefly, the cells were split into poly-D-lysine-coated black 96-well plates with clear bottoms (6×10^4 cells/well). The following day the culture medium was aspirated and the cells were incubated in 50 μl assay buffer [Hanks Buffered Saline Solution containing 20 mM HEPES, 1 mM CaCl2, 1 mM MgCl2, 2.5 mM probenecid, pH 7.4] supplemented with 6 mM Fluo-4/AM at 37° C. for 1 hour. Next, the buffer was aspirated, the cells were washed once with 100 μl assay buffer, and then 100 μl assay buffer was added to the cells (in the antagonist experiments the compound was added at this point). […] The compounds were characterized in duplicate at least three times at each cell line.

[7] = agonist potency, n = 3-4, read-out: 5-HT2A EC50
[8] = agonist potency, n = 3-4, read-out: 5-HT2C EC50
[9] = agonist potency, n = 3-4, read-out: 5-HT2A [pEC50 ± S.E.M.] (converted)
[10] = IP assay, % of Rmax of 5-HT, hydrochloride

| Structure (SMILES) | 5-HT2B Rmax [3] [%] | 5-HT2A Rmax ([4]; IP assay, % of Rmax of 5-HT) [%] | EC50 ([4]; IP assay) [nM] | 5-HT2A Rmax ± S.E.M [5] [%] | EC50 [5, 7] [nM] | EC50 ([3]; read-out: 5-HT2B EC50) [nM] | EC50 [6, 8] [nM] | EC50 [5, 9] [nM] | other results |
| --- | --- | --- | --- | --- | --- | --- | --- | --- | --- |
| CN(C)CCCN1c2ccccc2CCc2ccccc21 [imipramine] | – | – | – | – | – | – | – | – | immobility time in the forced swim test, ACTH-treated rats ([1]; ACTH-treated rats, FIG. 4A): lack of effect; immobility time in the forced swim test, vehicle-treated rats ([1]; vehicle-treated rats, 15 mg/kg i.p., FIG. 4B): significant antidepressant-like effect |
| COc1cc(C(F)(F)F)c(OC)cc1CCN [Compound 2C-TFM, 4-trifluoromethyl-2,5-dimethoxyphenethylamine, reference compound] | 81 | 78 | 7.1 | – | – | – | – | – | EC50 [2]: 3.8 nM; Selectivity EC50 5-HT2C/EC50 5-HT2A ([2]; IP assay): 0.53; 5-HT2C Rmax (%) ([2]; IP assay): 100%; EC50 ([3]; 5-HT2B EC50 (nM)): 81 nM |
| COc1cc(CCNCc2ccccc2O)c(OC)cc1C#N [Compound 25CN-NBOH, 4-(2-((2-hydroxybenzyl)amino)ethyl)-2,5-dimethoxybenzonitrile] | – | – | – | – | – | – | – | – | EC50 [2]: 27 nM; 5-HT2C Rmax (%) ([2]; IP assay): 84% |
| COc1cc(C(F)(F)F)c(OC)cc1[C@@H]1CNC[C@@H](C)C1.Cl (relative stereo) [Compound 36, cis or trans 3-(2,5-dimethoxy-4-(trifluoromethyl)phenyl)-5-methylpiperidine hydrochloride] | 39 | 61 | 41 | 68 ± 2 | 48 | 120 | 400 | – | Selectivity EC50 5-HT2C/EC50 5-HT2A [5]: 8.2; 5-HT2A [pEC50 ± S.E.M.] ([5]; agonist potency, n = 3-4): [7.32 ± 0.10]; Selectivity EC50 5-HT2B/EC50 5-HT2A [3]: 2.9; 5-HT2C Rmax ± S.E.M [6]: 43 ± 6%; 5-HT2C [pEC50 ± S.E.M.] ([6]; agonist potency, n = 3-4): [6.40 ± 0.09] |
| CCCCc1cc(OC)c([C@@H]2CCCNC2)cc1OC [Compound 57, (S)-3-(4-butyl-2,5-dimethoxyphenyl)piperidine hydrochloride] | 18 | 62 | 190 | – | 270 | 350 | – | – | 5-HT2C agonist activity (n.a./w.a.) [6]: w.a. |
| COc1cc([C@@H]2CCCNC2)c(OC2CC2)cc1C(F)(F)F [Compound 55, (S)-3-(2-cyclopropoxy-5-methoxy-4-(trifluoromethyl)phenyl)piperidine hydrochloride] | – | 38 | 3000 | 30 ± 5 | 1100 | > 100000 | – | 1070 | Selectivity EC50 5-HT2C/EC50 5-HT2A [5]: >50^e; Selectivity EC50 5-HT2B/EC50 5-HT2A [3]: >30^c; 5-HT2B agonist activity (n.a.) ([3]; up to 100 μM (Table 3)): n.a. [@ 100 μM]^a > (no agonist activity: the compound did not evoke significant responses at concentrations up to 100 μM); 5-HT2C agonist activity (n.a./w.a.) [6]: w.a. |
| COc1cc(C(F)(F)F)ccc1[C@@H]1CCCNC1 [Compound 53, (S)-3-(2-methoxy-4-(trifluoromethyl)phenyl)piperidine hydrochloride] | 51 | 87 | 250 | 68 ± 2 | 69 | 940 | – | – | 5-HT2C agonist activity (n.a./w.a.) [6]: w.a. |
| CCOc1cc(CC)c(OC)cc1[C@@H]1CCCNC1 [Compound 43, (S)-3-(2-ethoxy-4-ethyl-5-methoxyphenyl)piperidine] | 11 | 45 | 670 | 42 ± 6 | 140 | 1100 | > 50000 | 138 | Selectivity EC50 5-HT2C/EC50 5-HT2A [5]: >1,000^e; Selectivity EC50 5-HT2B/EC50 5-HT2A [3]: 1.6 |
| COc1cc([C@@H]2CCCNC2)c(OC)cc1Br [Compound 12, (S)-3-(4-bromo-2,5-dimethoxyphenyl)piperidine] | 48 | 70 | 250 | – | 69 | 190 | > 50000 | – | – |
| COc1cc([C@@H]2CCCNC2)c(OC)cc1I [Compound 14, (S)-3-(4-Iodo-2,5-dimethoxyphenyl)piperidine] | 57 | 72 | 45 | – | – | 170 | > 50000 | 37.2 | – |
| COc1cc(C(F)(F)F)c(OC)cc1C1CCC(C)NC1 (single isomer, unassigned) [Compound 38, 5-(2,5-dimethoxy-4-(trifluoromethyl)phenyl)-2-methylpiperidine hydrochloride] | – | – | 120 | – | 160 | 2200 | – | 155 | 5-HT2A Rmax ± S.E.M ([5]; hydrochloride): 38 ± 4%; Selectivity EC50 5-HT2C/EC50 5-HT2A ([5]; hydrochloride): >300^e; 5-HT2B Rmax ([3]; hydrochloride): 29%; Selectivity EC50 5-HT2B/EC50 5-HT2A ([3]; hydrochloride): 18; 5-HT2A Rmax [4, 10]: 60%; 5-HT2C agonist activity (n.a./w.a.) [6]: w.a. |
| CCOc1cc([C@@H]2CCCNC2)c(OC)cc1C(F)(F)F.Cl [Compound 20, (S)-3-(5-ethoxy-2-methoxy-4-(trifluoromethyl)phenyl)piperidine hydrochloride] | 57 | 79 | 36 | 95 ± 1 | 10 | 580 | 290 | 10.2 | – |
| COc1cc(C(F)(F)F)c(OC)cc1C1CCC(C)NC1 (single isomer, unassigned) [Compound 37, 5-(2,5-dimethoxy-4-(trifluoromethyl)phenyl)-2-methylpiperidine hydrochloride] | – | – | 1500 | – | 270 | 620 | 3400 | 263 | 5-HT2A Rmax ± S.E.M ([5]; hydrochloride): 90 ± 10%; Selectivity EC50 5-HT2C/EC50 5-HT2A ([5]; hydrochloride): 13; 5-HT2B Rmax ([3]; hydrochloride): 54%; Selectivity EC50 5-HT2B/EC50 5-HT2A ([3]; hydrochloride): 0.4; 5-HT2A Rmax [4, 10]: 110%; 5-HT2C Rmax ± S.E.M [6]: 33 ± 5% |
| COc1cc(C(F)(F)F)c(OC)cc1C1CCCNC1C.Cl (stereo not shown) [Compound 35, 3-(2,5-dimethoxy-4-(trifluoromethyl)phenyl)-2-methylpiperidine hydrochloride] | 28 | 70 | 260 | 75 ± 4 | 73 | 850 | 3000 | – | Selectivity EC50 5-HT2C/EC50 5-HT2A [5]: 41; Selectivity EC50 5-HT2B/EC50 5-HT2A [3]: 3.3; 5-HT2C Rmax ± S.E.M [6]: 21 ± 2%; EC50 ([6]; agonist potency, n = 3-4, read-out: 5-HT2C [pEC50 ± S.E.M.] (converted)): 2950 nM |
| COc1cc(CC(C)N)c(OC)cc1I (stereo not shown) [DOI, 2,5-Dimethoxy-4-iodoamphetamine, reference compound] | 79 | – | – | – | – | – | – | – | EC50 [2]: 9.1 nM; 5-HT2C Rmax (%) ([2]; IP assay): 89%; 5-HT2A Rmax [4]: 89% |
